Active and inactive are the calls of the source.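 How the source made its calls: active means tumour findings in long-term animal cancer tests in more than one sex, species or organ; inactive means no tumour finding and more than one negative test.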
Assay: DSSTox (CPDBAS) Carcinogenic Potency Database Summary MultiCellCall Results
Conditions: animal carcinogenicity bioassays, multi-cell call summary
Procedure, shortened: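 ActivityScore sums 50 for multispecies, 30 for multisex and 20 for multisite positivity. Based on the most positive experiment per sex-species across standardised chronic rodent and other animal cancer tests.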
For `[Na+]`, the outcome was “inactive; multisex inactive; multispecies inactive”. For `Nc1cc(Cl)c(N)c(Cl)c1`, the outcome was “active; multisex active”. With `O=C(O)/C=C/c1ccc(O)c(O)c1` the outcome was “active; multisite active; multisex active; multispecies active”. For `C[C@@H]1CCC[C@H](C)N1CCCC(O)(c1ccccc1)c1ccccn1` (stereo partly drawn), the outcome was “inactive; multisex inactive; multispecies inactive”. With `C=C1C(C)(C)[C@@]2(Cl)C(Cl)[C@]1(Cl)C(Cl)(Cl)C2(Cl)Cl` (stereo partly drawn) the outcome was “active; multisite active”. For `CC(Oc1cc(Cl)ccc1Cl)C(=O)O` (stereo not drawn), the outcome was “inactive; multisex inactive”. With `CCCN(CCC)N=O` the outcome was “active; multisite active; multispecies active”. For `COc1ccc(O)cc1`, the outcome was “active; multisex active”. In the case of `Cc1cc(O)c(C(C)(C)C)cc1Sc1cc(C(C)(C)C)c(O)cc1C`, the outcome is reported as “inactive; multisex inactive; multispecies inactive”. With `N=C1C=CC(=C(c2ccc(N)cc2)c2ccc(N)cc2)C=C1` the outcome was “active; multisite active; multisex active; multispecies active”. In the case of `CSCCC(N)C(=O)O` (stereo not drawn), the outcome is reported as “inactive; multispecies inactive”. With `O=NN1CC=CCC1` the outcome was “active; multisite active”. In the case of `[C-]1=CC=CC1.[C-]1=CC=CC1.[Cl-].[Cl-].[Ti+4]`, the outcome is reported as “inactive; multisex inactive”. In the case of `CC(N)=O`, the outcome is reported as “active; multisite active; multisex active; multispecies active”. In the case of `C=C(C)[C@H]1Cc2c(ccc3c2O[C@@H]2COc4cc(OC)c(OC)cc4[C@@H]2C3=O)O1`, the outcome is reported as “inactive; multisex inactive; multispecies inactive”. For `Cc1cc(-c2ccc(N)c(C)c2)ccc1N`, the outcome was “active; multisite active; multisex active; multispecies active”. In the case of `CCNC(=S)NCC`, the outcome is reported as “active; multisex active”. With `CCOP(=S)(OCC)SC1OCCOC1SP(=S)(OCC)OCC` (stereo not drawn) the outcome was “inactive; multisex inactive; multispecies inactive”. For `COc1ccc(N)c(OC)c1`, the outcome was “inactive; multisex inactive; multispecies inactive”. With `O=C1C(Cl)=C(Cl)C(=O)C(Cl)=C1Cl` the outcome was “inactive; multisex inactive”. With `O=NN1CCCN(N=O)CC1` the outcome was “active; multisite active”. With `S=C1NCCN1` the outcome was “active; multisite active; multisex active; multispecies active”. In the case of `Oc1cccc2cccnc12.Oc1cccc2cccnc12.[Cu]`, the outcome is reported as “inactive; multisex inactive”. With `CCC[N+](=O)[O-]` the outcome was “inactive; multisex inactive”. For `CN(CCO)N=O`, the outcome was “active; multisite active”. For `CC(O)CN(C)c1ccc(NN)nn1` (stereo not drawn), the outcome was “inactive; multisex inactive”. For `CN(N=O)C(=O)NCCC[C@H](N)C(=O)O`, the outcome was “active; multisite active; multisex active”. With `CC(C)NCC(O)c1ccc(NS(C)(=O)=O)cc1` (stereo not drawn) the outcome was “inactive; multisex inactive; multispecies inactive”. In the case of `CC(C)OC(=O)COc1ccc(Cl)cc1Cl`, the outcome is reported as “inactive; multisex inactive”. In the case of `OCC(CO)(CBr)CBr`, the outcome is reported as “active; multisite active; multisex active; multispecies active”. With `CCCc1ccc2c(c1)OCO2` the outcome was “active; multisite active; multisex active; multispecies active”. With `CN1[C@@H]2CC[C@H]1CC(OC(=O)C(CO)c1ccccc1)C2` (stereo partly drawn) the outcome was “inactive; multisex inactive”. With `C#C[C@]1(O)CC[C@H]2[C@@H]3CCC4=C(CCC(=O)C4)[C@H]3CC[C@@]21C` the outcome was “inactive; multisex inactive”. With `O=NN(CCO)CCO` the outcome was “active; multisite active; multisex active”. In the case of `ClCOCCl`, the outcome is reported as “active; multisite active; multisex active; multispecies active”. For `CC#N`, the outcome was “inactive; multisex inactive; multispecies inactive”. With `O=C([O-])C(=O)O.O=C([O-])C(=O)O.[K+].[K+].[O]=[Ti]` the outcome was “inactive; multisex inactive”. With `CC(=O)NNC(C)=O` the outcome was “inactive; multisex inactive”. In the case of `CCCCCCN(N=O)C(N)=O`, the outcome is reported as “active; multisite active; multisex active”. With `N#Cc1ccc(C2CCCc3cncn32)cc1` (stereo not drawn) the outcome was “inactive; multisex inactive”. In the case of `CC/C(=C(/CC)c1ccc(O)cc1)c1ccc(O)cc1`, the outcome is reported as “active; multisite active; multisex active; multispecies active”. In the case of `OCCBr`, the outcome is reported as “active; multisex active”. For `CC(/C=C/C=C(\C)C(=O)O[C@@H]1O[C@H](CO[C@@H]2O[C@H](CO)[C@@H](O)[C@H](O)[C@H]2O)[C@@H](O)[C@H](O)[C@H]1O)=C\C=C\C=C(C)\C=C\C=C(/C)C(=O)O[C@@H]1O[C@H](CO[C@@H]2O[C@H](CO)[C@@H](O)[C@H](O)[C@H]2O)[C@@H](O)[C@H](O)[C@H]1O`, the outcome was “inactive; multisex inactive”. In the case of `O=CCCCC=O`, the outcome is reported as “inactive; multisex inactive; multispecies inactive”. For `CCN(CC)C(=S)[S-].CCN(CC)C(=S)[S-].[Zn+2]`, the outcome was “inactive; multisex inactive”. In the case of `NC(=O)c1cccnc1`, the outcome is reported as “inactive; multisex inactive”. With `CC(COc1ccccc1)N(CCCl)Cc1ccccc1` (stereo not drawn) the outcome was “active; multisex active; multispecies active”. For `CCCCCCCCCCCCN=C(N)N`, the outcome was “inactive; multisex inactive”. In the case of `COc1cc(NC(=O)C(N=Nc2ccc(-c3ccc(N=NC(C(C)=O)C(=O)Nc4cc(OC)c(Cl)cc4OC)c(Cl)c3)cc2Cl)C(C)=O)c(OC)cc1Cl` (stereo not drawn), the outcome is reported as “inactive; multispecies inactive”. With `N#CC(c1ccccc1)c1ccccc1` the outcome was “inactive; multisex inactive”. With `COc1cc2c(c3c1c(=O)c1ccccc1n3C)C=CC(C)(C)O2` the outcome was “active; multisite active; multisex active”. In the case of `COc1ccc(CN(CCN(C)C)c2ccccn2)cc1`, the outcome is reported as “active; multisex active”. With `Nc1ccc(-c2ccccc2)cc1` the outcome was “active; multisite active; multisex active”. In the case of `O=C(O)Cc1cccc2ccccc12`, the outcome is reported as “inactive; multisex inactive”. For `C#CC(OC(N)=O)(c1ccccc1)c1ccc(Cl)cc1` (stereo not drawn), the outcome was “active; multisite active”. In the case of `Oc1cccc(O)c1`, the outcome is reported as “inactive; multisex inactive; multispecies inactive”. With `CCC1CO1` (stereo not drawn) the outcome was “active; multisite active”. In the case of `C1CCCNCCC1`, the outcome is reported as “inactive; multisex inactive”. For `O=S(=O)(O)c1ccc(N=Nc2cc(S(=O)(=O)O)c3ccccc3c2O)c2ccccc12`, the outcome was “inactive; multisex inactive; multispecies inactive”. In the case of `CCC1(c2ccccc2)C(=O)NCNC1=O`, the outcome is reported as “active; multisite active; multisex active”. In the case of `C/C(=C(\CCOC(=O)c1ccccc1)SC(=O)c1ccccc1)N(C=O)Cc1cnc(C)nc1N`, the outcome is reported as “inactive; multisex inactive”. For `CC(C)NCC(O)c1ccc2ccccc2c1` (stereo not drawn), the outcome was “inactive; multisex inactive”. In the case of `O=P(O)(O)O`, the outcome is reported as “inactive; multisex inactive”. For `O=C1c2ccccc2C(=O)c2ccccc21`, the outcome was “inactive; multisex inactive”. For `NCCCCCCCCCCC(=O)O`, the outcome was “active; multisite active”. With `CN(CCCO)N=O` the outcome was “active; multisite active; multisex active”. In the case of `COC(=O)C1=C(C)NC(C)=C(C(=O)OCC(C)(C)CN(C)Cc2ccccc2)C1c1cc([N+](=O)[O-])ccc1F` (stereo not drawn), the outcome is reported as “inactive; multisex inactive”. For `CC[N+](=O)[O-]`, the outcome was “inactive; multisex inactive”. In the case of `Cc1ccc([N+](=O)[O-])cc1N`, the outcome is reported as “active; multisite active; multisex active”. For `CC1=C(/C=C/C(C)=C/C=C/C(C)=C/C=C/C=C(C)/C=C/C=C(C)/C=C/C2=C(C)CCCC2(C)C)C(C)(C)CCC1`, the outcome was “inactive; multisex inactive; multispecies inactive”. For `CCC1(c2ccccc2)C(=O)N=C(O)NC1=O` (stereo not drawn), the outcome was “active; multisex active; multispecies active”. In the case of `C=CCN(N)CC=C`, the outcome is reported as “active; multisite active; multisex active”. For `NN`, the outcome was “active; multisite active; multisex active; multispecies active”. For `O=c1cc(CO)occ1O`, the outcome was “active; multisex active”. For `O=c1[nH]c(=O)n(C2CCCO2)cc1F` (stereo not drawn), the outcome was “inactive; multisex inactive; multispecies inactive”. For `CC(=O)CN(CCO)N=O`, the outcome was “active; multisite active; multispecies active”. For `IC(I)I`, the outcome was “inactive; multisex inactive; multispecies inactive”. In the case of `Cc1ccc(N=C=O)cc1N=C=O`, the outcome is reported as “active; multisite active; multisex active; multispecies active”. For `NC(N)=Nc1nc(CSCCNc2nsnc2N)cs1`, the outcome was “active; multisex active”. In the case of `c1ccc2sc(SNC3CCCCC3)nc2c1`, the outcome is reported as “inactive; multisex inactive”. In the case of `NCCS(=O)(=O)O`, the outcome is reported as “inactive; multisex inactive”. In the case of `c1ccc2sc(SSc3nc4ccccc4s3)nc2c1`, the outcome is reported as “inactive; multisex inactive”. In the case of `CCNc1nc(Cl)nc(NCC)n1`, the outcome is reported as “inactive; multisex inactive”. In the case of `COC(C(=O)O)c1ccccc1` (stereo not drawn), the outcome is reported as “inactive; multisex inactive”. For `S=C=Nc1ccccc1`, the outcome was “inactive; multisex inactive”. In the case of `O=CNNc1nc(-c2ccc([N+](=O)[O-])o2)cs1`, the outcome is reported as “active; multisite active; multisex active; multispecies active”. For `CN1CCC[C@H]1c1cccnc1`, the outcome was “inactive; multisex inactive”. In the case of `CC(=O)[O][Hg][c]1ccccc1`, the outcome is reported as “inactive; multisex inactive”. In the case of `Cc1ccc(Cc2cnc(NCCSCc3ccc(CN(C)C)o3)[nH]c2=O)cn1`, the outcome is reported as “active; multisex active”. In the case of `Clc1ccc(-c2cccc(Cl)c2Cl)c(Cl)c1`, the outcome is reported as “active; multisite active; multisex active”. In the case of `O=S(=O)(Oc1ccc(Cl)cc1Cl)c1ccccc1`, the outcome is reported as “inactive; multisex inactive”. For `CN(C)C(=S)[S][Bi]([S]C(=S)N(C)C)[S]C(=S)N(C)C`, the outcome was “inactive; multisex inactive”. For `O.[Cd+2].[Cl-].[Cl-]`, the outcome was “inactive; multisex inactive”. For `CC(=O)Oc1c(C)c(C)c2c(c1C)CCC(C)(CCCC(C)CCCC(C)CCCC(C)C)O2` (stereo not drawn), the outcome was “inactive; multisex inactive”. For `C[C@]12CC[C@H](OS(=O)(=O)O)CC1=CC[C@@H]1[C@@H]2CC[C@]2(C)C(=O)CC[C@@H]12`, the outcome was “inactive; multisex inactive”. With `CCOC(=O)CC(SP(=O)(OC)OC)C(=O)OCC` (stereo not drawn) the outcome was “inactive; multisex inactive; multispecies inactive”. For `C=COC(C)=O`, the outcome was “active; multisite active; multisex active; multispecies active”. With `N` the outcome was “inactive; multisex inactive”. In the case of `O=C1CCO1`, the outcome is reported as “active; multisex active; multispecies active”. In the case of `NC(=O)CCCCn1ccc(NC(N)=NCC(F)(F)F)n1`, the outcome is reported as “active; multisex active; multispecies active”. With `[O-][Cl+]O` the outcome was “inactive; multisex inactive; multispecies inactive”. For `C=C(Cl)Cl`, the outcome was “active; multisite active; multisex active”. With `CCCCN(CCCCO)N=O` the outcome was “active; multisite active; multisex active”.
